The values below come from patent publication US20260242390A1, “TOTAL SYNTHESES OF PORTIMINE A AND ANALOGUES THEREOF AS SMALL MOLECULE MODULATORS OF NMD3” (priority 2023, published 2026).

One series relates to human PBMCs. The series is described as follows: Immunoblot of caspase-3 in PBMCs. Format: cell-based. From the text:
FIG. 3. Initial SAR studies: Assessing activity of PAL functionalized PTMA analogs. […] (A) PA and Ph-PA show less toxic to healthy PBMCs compared to Jurkat cells. […] (B) Immunoblot of caspase-3 in Jurkat and PBMCs with indicated conditions.
• 1) Portimine A and its functional analogs show stereo-selective acute toxicity in cancer cells (FIG. 1). […] (B) Structure of portimine related analogs: phenyl-portimine A (Ph-PA, 36) and epi-portimine A (ePA, 38). Structure of fully functionalized portimine A-based epimeric probe pair: portimine A-diazirine-alkyne (PA-DA, 35-2) and epi-portimine A-diazirine-alkyne (ePA-DA, 35-1). (C) Cell viability analysis of portimine A and analogs. Jurkat cells were treated with increasing concentrations of portimine A and analogs for 24 hours. All presented data as mean of biological replicated experiments (n=3). […] Jurkat cells were treated with portimine A or analogs for 12 hours at 10 nM. […] Structurally related negative control ePA and PB are non-toxic in all cell types in the current concentrate range. PBMCs (25k per well), Jurkat (10k per well). […] Cell cycle analysis in Jurkat cells (FIG. 2). […] Cell lysates were fractionated by sucrose gradient (5-50%) and each fraction were analyzed by western blot. eIF6 levels increase in 60S subunit fraction and decrease in ribosome-free fractions after PA treatment. […]
A general note: Immunoblotting shows a protein as a band on a membrane.

For series [1] the following is noted: in vivo; cited from earlier work.
For another series, the system named is HepG2. Briefly: Broad cell line profiling, HepG2. The class given is cell-based. The settings on record: Homo sapiens; HepG2, Hepatocellular Carcinoma; read-out: PA IC50. From the text:
(§1) • A panel of human and mouse cancer cell types used to assess the breadth of PA activity, including multiple therapy resistant metastatic mesenchymal tumor cell lines and primary glioblastoma patient-derived metastatic stem/tumor initiating cell populations.

For a further series, the system named is B16-F10. The series is described as follows: Broad cell line profiling, B16-F10. Format: cell-based. The settings on record: B16-F10, Mouse Melanoma; read-out: PA IC50.
Description: as §1

Another series has as its system U87EGFRvIII. The series is described as follows: Broad cell line profiling, U87EGFRvIII. The class given is cell-based. The settings on record: Homo sapiens, EGFRvIII Expressing Glioblastoma, read-out: PA IC50.
Description: as §1

In series [2] the test system is Jurkat. The series is described as follows: Washout experiment, Cell Titerglo cell viability. The class given is cell-based, human. Conditions: for IC50: Homo sapiens, Jurkat 50 k per well. A general note: Cellular ATP, detected with luciferase, serves as a proxy for viable cell number.
A further series relates to RD. Briefly: Broad cell line profiling, RD. The class given is cell-based. Conditions: Human Rhabdomyosarcoma, read-out: PA IC50.
Description: as §1

The subject of another series is 4T1. The series is described as follows: Broad cell line profiling, 4T1. Format: cell-based. The settings on record: 4T1, Mouse Mammary Carcinoma; read-out: PA IC50.
Description: as §1

Series [3] has as its system Jurkat. Briefly: Broad cell line profiling, Jurkat. Conditions: Human Leukemia, read-out: PA IC50. The class given is cell-based.
Description: as §1

The subject of another series is MCF-7. Briefly: Broad cell line profiling, MCF-7. The class given is cell-based. Conditions: Homo sapiens, MCF7; MCF-7, Breast Adenocarcinoma; read-out: PA IC50.
Description: as §1

In the case of `C#CCCC1(CCNC(=O)c2ccc(C3=C[C@@H]4[C@@H]5O[C@]6(CC[C@H](O6)C(C)C[C@@H](O)C5=O)CC(O)C5=NCC[C@@]54CC3)cc2)N=N1` (some centres unmarked) [PA-DA, portimine A-diazirine-alkyne], the “caspase-3 cleavage in human PBMCs” value with human PBMCs is reported as “but not human PBMCs”.

For orientation: LD50 means the dose at which mortality reaches 50%. As a reminder, the IC50 is the concentration at which inhibition is half-maximal. For the compound `C=CC1=C[C@@H]2[C@@H]3O[C@]4(CC[C@H](O4)C(C)C[C@@H](O)C3=O)CC(O)C3=NCC[C@@]32CC1` (some centres unmarked) [PA, portimine A], the LD50 in series [1] is 1.57 mg/kg. Also, the IC50 is 4.8 nM with HepG2; 0.75 nM in the series on B16-F10; 3.4 nM with U87EGFRvIII; approximately 5 nM in the series with Jurkat [2] (read-out: IC50 after 30 min exposure, washout at 30 min, total 36 hours); approximately 2 nM in the series on Jurkat [2] (washout at 4 hr, total 36 hours, read-out: IC50 after 4 hr exposure); 0.56 nM in the series with RD. For the same compound, the IC50 was determined as 0.63 nM in the series with 4T1, 0.56 nM in the series on Jurkat [3] and 0.77 nM with MCF-7. In the series on Jurkat [2] (compound washout, cell-based target engagement), the “exposure resulting in minimal loss of potency” value is less than 1 h. In addition, the “decrease in IC50 on removing compound after 30 min” value in the series with Jurkat [2] (washout after 30 min, total 36 hours) is on record as ~ 5 fold. In addition, the “caspase-3 cleavage in human PBMCs” value in the series on human PBMCs was “but not human PBMCs”.
